# From patent US9226929B2, “Pharmaceutically active disubstituted triazine derivatives” (Bayer Intellectual Property GMBH, priority 2011, dated 2016)
# Legend:
# [1] = biological target: T1, CDK7/CyclinH/MAT1 (Homo sapiens, UniProt P50613); test: LanthaScreen Eu Kinase Binding Assay, CDK7; conditions: tracer 236, read-out: CDK7 (activity range), Kd
# T1 construct: His; purchased Carna Biosciences
# Procedure, shortened: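 TR-FRET displacement of an Alexa Fluor 647 active-site tracer, detected with a Eu anti-GST antibody, over an 8-point 1:3 compound series. Tracer was set at its Kd (30 nM for CDK2/Cyclin A, CDK7 and CDK9/Cyclin T1; 35 nM for CDK9/Cyclin K). Read after 1 h at room temperature; Kd was fitted from sigmoidal curves.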
# [2] = system: NF-kappaB reporter gene activation; test: NF-kappaB Reporter Assay; type: cell-based; conditions: Homo sapiens; HEK293 cells, pNFkBluc reporter, 20 ng/ml TNF alpha, 5 h; read-out: NF-kappaB activation (activity range), IC50
# Method: 3.2 NF-kappaB Reporter Assay
# Cells were maintained in RPMI cell culture medium+glutamine (PAN Biotech GmbH, Aidenbach, Germany) supplemented with 10% fetal calf serum (PAA Laboratories GmbH, Pasching, Austria) and grown at 37° C., 5% CO2. HEK293 cells grown to 50% confluence were transfected with the Amaxa® Cell Line Nucleofector® Kit V (Lonza, Basel, Switzerland, catalog #VCA-1003). Transfections were performed according to manufacturer's optimized protocol for transfection of HEK293 cells. In brief, 2×10^5 cells were transfected with 5 μg highly purified plasmid DNA. Cells were transfected with a NF-kappa B reporter plasmid (pNFkBluc), pTALluc for control, or pMAXGFP for transfection control. After transfection, cells were taken up in 500 μL RPMI1640 cell culture medium, incubated for 1 h at 37° C., and 4.5 ml DMEM without phenol red were added per transfection. Transfected cells were seeded in 96 well plates (Greiner Bio-One, Frickenhausen, Germany, catalog #655098) with 100 μL cell suspension per well and incubated for 48 h. To each well, 100 μL DMEM with 2× concentrated compound diluted from 10 mM DMSO stocks, or 100 μL DMEM with 0.4% DMSO for control wells, was added. The compounds of general formula (I) summarized in Table 6 were used in this assay. Cells were stimulated with 20 ng/ml TNF alpha, and plates were incubated for 5 h at 37° C./5% CO2. Cell culture supernatants were removed to leave 100 μl medium per well, followed by addition of 100 μl Bright Glo luciferase assay reagent (Promega, Madison, Wis., USA, catalog #E2620), and shaking for 5 minutes in the dark. Luminescence was measured with a Victor Photospectrometer (Perkin Elmer, Waltham, Mass., USA). IC50 values were calculated with the software Excel Fit (IDBS, Guildford, UK) from 2-fold dilution series comprising at least 10 concentrations in duplicates.
# T1 sequence (P50613 whole entry): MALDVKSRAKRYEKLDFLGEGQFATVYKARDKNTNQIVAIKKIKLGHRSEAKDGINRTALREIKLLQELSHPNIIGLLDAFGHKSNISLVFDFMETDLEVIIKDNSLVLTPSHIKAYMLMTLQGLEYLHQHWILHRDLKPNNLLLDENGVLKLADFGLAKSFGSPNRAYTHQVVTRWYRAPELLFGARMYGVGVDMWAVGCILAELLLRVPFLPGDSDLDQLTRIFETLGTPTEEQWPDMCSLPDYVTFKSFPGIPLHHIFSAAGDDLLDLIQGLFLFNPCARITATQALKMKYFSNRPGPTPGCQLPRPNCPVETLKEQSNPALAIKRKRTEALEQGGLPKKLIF
# T1 sequence (P51946 whole entry partner): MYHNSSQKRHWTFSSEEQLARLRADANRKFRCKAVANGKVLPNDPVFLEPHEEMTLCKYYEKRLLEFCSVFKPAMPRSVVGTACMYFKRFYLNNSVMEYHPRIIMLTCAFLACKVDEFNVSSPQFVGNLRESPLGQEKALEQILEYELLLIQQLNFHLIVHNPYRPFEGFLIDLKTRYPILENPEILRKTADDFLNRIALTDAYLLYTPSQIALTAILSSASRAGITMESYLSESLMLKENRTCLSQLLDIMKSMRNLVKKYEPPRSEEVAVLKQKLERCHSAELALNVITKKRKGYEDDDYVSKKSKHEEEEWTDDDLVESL
# T1 sequence (P51948 whole entry partner): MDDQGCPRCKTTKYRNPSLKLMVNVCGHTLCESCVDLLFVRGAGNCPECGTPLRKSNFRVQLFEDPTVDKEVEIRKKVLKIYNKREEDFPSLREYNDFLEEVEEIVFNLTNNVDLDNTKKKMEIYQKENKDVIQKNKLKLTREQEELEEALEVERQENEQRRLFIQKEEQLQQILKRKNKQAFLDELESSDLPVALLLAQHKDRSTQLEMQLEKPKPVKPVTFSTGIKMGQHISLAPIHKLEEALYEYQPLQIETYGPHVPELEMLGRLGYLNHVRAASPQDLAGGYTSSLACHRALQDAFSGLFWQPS
SMILES,Kd [1] [µM],IC50 [2] [µM]
"NS(=O)(=O)Cc1cccc(Nc2ncnc(N3CCCC3c3ccccc3)n2)c1 (racemic) [Compound B33, rac-3-[(4-(2-Phenylpyrrolidin-1-yl)-1,3,5-triazin-2-yl)amino]-benzenemethanesulfonamide]",> 10,1 to 10
"NS(=O)(=O)Cc1cccc(Nc2ncnc(N3CCCCC3)n2)c1 [Compound B1, 3-[(4-(Piperidin-1-yl)-1,3,5-triazin-2-yl)amino]benzenemethane sulfonamide]",> 10,> 10
"COC[C@H]1CCCN1c1ncnc(Nc2cccc(CS(N)(=O)=O)c2)n1 [Compound B17, (R)-3-[(4-(2-(Methoxymethyl)pyrrolidin-1-yl)-1,3,5-triazin-2-yl)amino]benzenemethanesulfonamide]",> 10,> 10
"COC(=O)[C@H]1CCCN1c1ncnc(Nc2cccc(CS(N)(=O)=O)c2)n1 [Compound B21, (R)-Methyl 1-[4-((3-(Sulfamoylmethyl)phenyl)amino)-1,3,5-triazin-2-yl]pyrrolidine-2-carboxylate]",> 10,> 10
"NS(=O)(=O)Cc1cccc(Nc2ncnc(N3CCc4ncccc4C3)n2)c1 [Compound B38, 3-[(4-(7,8-Dihydro-1,6-naphthyridin-6(5H)-yl)-1,3,5-triazin-2-yl)amino]-benzenemethanesulfonamide]",1 to 10,1 to 10
"NS(=O)(=O)Cc1cccc(Nc2ncnc(N3CCc4nc[nH]c4C3)n2)c1 [Compound B44, 3-[(4-(6,7-Dihydro-3H-imidazo[4,5-c]pyridin-5(4H)-yl)-1,3,5-triazin-2-yl)amino]benzenemethanesulfonamide]",1 to 10,
"NS(=O)(=O)Cc1cccc(Nc2ncnc(N3CCc4ncsc4C3)n2)c1 [Compound B45, 3-[(4-(6,7-Dihydrothiazolo[5,4-c]pyridin-5(4H)-yl)-1,3,5-triazin-2-yl)amino]benzenemethanesulfonamide]",1 to 10,
"NS(=O)(=O)Cc1cccc(Nc2ncnc(N3CCCn4nccc43)n2)c1 [Compound B47, 3-[(4-(6,7-Dihydropyrazolo[1,5-a]pyrimidin-4(5H)-yl)-1,3,5-triazin-2-yl)amino]benzenemethanesulfonamide]",0.1 to 1,1 to 10
"NS(=O)(=O)Cc1cccc(Nc2ncnc(N3Cc4cn[nH]c4C3)n2)c1 [Compound B51, 3-[(4-(Pyrrolo[3,4-c]pyrazol-5(1H,4H,6H)-yl)-1,3,5-triazin-2-yl)amino]-benzenemethanesulfonamide]",1 to 10,
